Experimental data from US6242224A, “Maltohexaose and maltoheptaose-forming amylase, and its preparation and uses” (Kabushiki Kaisha Mayashibara Seibutsu Kagaku Kenkyujo, priority 1994, dated 2001).

Tested on: AMYLASE
Experiment: Inhibition or promotion of AMYLASE activity by ions and EDTA
Type: biochemical, Alcaligenes latus D2271
Conditions: for inhibition of enzyme activity: one mM metal ion
Procedure: The activity of the present AMYLASE is assayed as follows: 0.2 ml of an enzyme solution is added to 5 ml of 0.3 w/v % soluble starch in 20 mM phosphate buffer (pH 5.5) containing 1 mM CaCl2), and the mixture solution is incubated at 40° C. for 10 min, followed by sampling 0.5 ml of the resultant solution, and adding the solution to 15 ml of 0.02N sulfate solution to suspend the enzymatic reaction. The resultant is mixed with 0.2 ml of 0.1N iodine solution, stirred, allowed to stand at 25° C. for 15 min, and its absorbance at a wave length of 660 nm determined. One unit activity of the present AMYLASE is defined as the amount of enzyme which diminishes the iodine coloration of 15 mg soluble starch when reacted at 40° C. for 10 min.
Effects of temperature and pH on the enzyme activity were studied in the presence of calcium chloride in accordance with the assay as used for determining the enzyme activity. […] The thermal stability of the enzyme was determined by incubating it in 20 mM acetate buffer containing 5 mM calcium chloride (pH 6.0) at different temperatures for 60 min, cooling the buffers, and assaying the remaining enzyme activity in each buffer. The pH stability of the enzyme was determined by incubating it in 20 mM acetate buffer having different pHs at 40° C. for one hour, adjusting the buffer to pH 6.0, and assaying the remaining enzyme activity in each buffer.

| Compound | promotion of activity and stabilization of AMYLASE (calcium ion) | inhibition of enzyme activity |
| --- | --- | --- |
| [Ca+2] [calcium ion] | promoted its activity and stabilized | – |
| [Pb+2] [lead ion] | – | inhibited |
| [Cu+2] [copper ion] | – | inhibited |
| [Zn+2] [zinc ion] | – | inhibited |
| [Hg+2] [mercury ion] | – | inhibited |
